Laboratory results: paper PMC3157365 (Journal of medicinal chemistry, 2008)

What was measured:
D2R = D2R (Homo sapiens, UniProt P14416); assay: Functional assay at D2R; assay type: cell-based
D3R = D3R (Homo sapiens, UniProt P35462); assay: Functional assay at D3R; assay type: cell-based
hD3R = hD3R (Homo sapiens, UniProt P35462); assay: Displacement of 125I-IABN in HEK 293 cells transfected with hD3R; assay type: binding; details: vs 1
hD2LR = hD2LR (Homo sapiens, UniProt P14416); assay: Displacement of 125I-IABN in HEK 293 cells transfected with hD2LR; assay type: binding; details: for decrease in binding at D2R compared to the piperidinol (unbridged) analogue: comparator from ref 28
Sequence of hD2LR (P14416 whole entry): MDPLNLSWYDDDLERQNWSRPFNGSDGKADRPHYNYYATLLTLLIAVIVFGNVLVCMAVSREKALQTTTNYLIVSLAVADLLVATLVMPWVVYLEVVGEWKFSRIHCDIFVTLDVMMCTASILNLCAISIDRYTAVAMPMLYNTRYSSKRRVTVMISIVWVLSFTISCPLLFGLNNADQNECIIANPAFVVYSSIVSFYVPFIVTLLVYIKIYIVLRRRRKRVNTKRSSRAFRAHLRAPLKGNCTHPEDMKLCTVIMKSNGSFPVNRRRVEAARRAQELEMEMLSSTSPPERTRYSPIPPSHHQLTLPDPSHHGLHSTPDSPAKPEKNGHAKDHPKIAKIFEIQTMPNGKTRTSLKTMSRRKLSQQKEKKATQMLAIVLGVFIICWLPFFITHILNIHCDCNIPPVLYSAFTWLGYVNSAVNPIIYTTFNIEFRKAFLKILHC

Sequence of D3R (P35462 whole entry): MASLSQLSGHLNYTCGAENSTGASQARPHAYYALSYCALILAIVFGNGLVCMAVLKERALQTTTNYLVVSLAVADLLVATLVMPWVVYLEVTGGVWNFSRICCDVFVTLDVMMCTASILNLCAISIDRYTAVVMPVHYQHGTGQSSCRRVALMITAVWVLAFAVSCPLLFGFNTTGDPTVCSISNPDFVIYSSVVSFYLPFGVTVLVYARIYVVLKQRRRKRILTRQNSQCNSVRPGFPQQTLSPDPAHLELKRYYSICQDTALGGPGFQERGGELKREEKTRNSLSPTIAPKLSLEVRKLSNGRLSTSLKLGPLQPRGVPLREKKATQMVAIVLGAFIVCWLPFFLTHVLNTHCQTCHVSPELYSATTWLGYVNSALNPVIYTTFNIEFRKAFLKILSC
Sequence of D2R (P14416 whole entry): as the sequence (P14416 whole entry) above
Sequence of hD3R (P35462 whole entry): as the sequence (P35462 whole entry) above

| Structure (SMILES) | functional efficacy at D2R (D2R) | functional efficacy at D3R (D3R) | decrease in binding at D2R compared to the piperidinol (unbridged) analogue (hD2LR) | further results |
| --- | --- | --- | --- | --- |
| O[C@@]1(c2ccc(Cl)cc2)C[C@H]2CC[C@@H](C1)N2Cc1csc2ccccc12 [Compound 41, endo-8-(Benzothien-3-ylmethyl)-3-(4-chlorophenyl)-8-azabicyclo[3.2.1]octan-3-ol] | antagonists | antagonists | – | – |
| O[C@@]1(c2ccc(Cl)c(Cl)c2)C[C@H]2CC[C@@H](C1)N2Cc1c[nH]c2ccccc12 [Compound 32, endo-8-(1H-Indol-3-ylmethyl)-3-(3,4-dichlorophenyl)-8-azabicyclo[3.2.1]octan-3-ol] | – | antagonists | – | – |
| O[C@]1(c2ccc(Cl)cc2)C[C@H]2CC[C@@H](C1)N2Cc1c[nH]c2ccccc12 [Compound 31, endo-8-(1H-Indol-3-ylmethyl)-3-(4-chlorophenyl)-8-azabicyclo-[3.2.1]octan-3-ol] | antagonists | antagonists | – | increase in D3R binding affinity compared to the parent ligand 1 (hD3R): 10 fold; decrease in affinity at D2R compared to 1 (hD2LR; vs 1): 3 fold |
| OC1(c2ccc(Cl)c(Cl)c2)CCN(Cc2c[nH]c3ccccc23)CC1 [Compound 2, reference compound] | – | – | – | selectivity for the D2 receptor subtype (hD2LR; D2R over D3R): more than 10 fold |
| COc1ccc2[nH]cc(CN3[C@@H]4CC[C@H]3C[C@](O)(c3ccc(SC)cc3)C4)c2c1 [Compound 40, endo-8-(5-Methoxy-1H-indol-3-ylmethyl)-3-(4-methylthiophenyl)-8-azabicyclo[3.2.1]octan-3-ol] | – | – | 100 fold | – |
| CSc1ccc([C@]2(O)C[C@H]3CC[C@@H](C2)N3Cc2c[nH]c3ccccc23)cc1 [Compound 37, endo-8-(1H-Indol-3-ylmethyl)-3-(4-(methylthio)phenyl)-8-azabicyclo[3.2.1]octan-3-ol] | – | – | 24 fold | – |
